The results in this text go back to patent US8476484B2, “Transgenic clawed frog embryos and use thereof as detectors of endocrine disrupters in the environment” (Centre National de la Recherche Scientifique (CNRS), priority 2002, dated 2013).

For experiment [1], the system named is xenopus stromelysin 3 promoter (several TREs) coupled to luciferase in XTC cells. As to the kind of experiment: XTC cell transfection with the stromelysin 3/luciferase construct. It counts as cell-based. The conditions noted are these: T3 10^-8 M in culture medium vs absence of T3 (basal level), FIG. 4.
Procedure: The construct is transferred into XTC cells by complexing the DNA with PEI (22 kDA, at 6 equivalents), the transfected cells are cultured in the presence (10^−8 M) or in the absence (−T3) of T3 thyroid hormone.
The transgenic constructs are tested in XTC xenopus cells in culture.
The XTC cells are obtained from carcasses of xenopus tadpoles just before metamorphosis (Pudney et al., 1973). The cells are cultured at ambient temperature, for up to 20 passages.
The cells are transfected by complexing the DNA with 22 kDa polyethyleneimine (PEI) at 6 equivalents (Ouatas et al., 1998).
The protocol makes it possible to rapidly verify the constructs and thus to verify that said constructs respond correctly to the substances, such as the T3 thyroid hormone when it is injected into the cell culture medium.
The test system of experiment [2] is TRE-tk-luciferase construct (rat malic enzyme TRE). Put plainly: Somatic transgenesis in xenopus dorsal muscle with TRE-tk-luciferase. In kind it is in vivo. The following applies: T3 10^-8 M vs -T3; measured four days after treatment; FIG. 5. As for the experimental part:
The somatic transgenesis is carried out either: • by injection of 1 μl of naked DNA into the dorsal muscle of the embryo. The DNA concentration is 100 ng/μl to 5 μg/μl in 0.07 M NaCL; • by microinjection of 1 μl of DNA/PEI (polyethyleneimine) into the brain of the embryo. The DNA concentration is between 50 and 500 ng/μl in 5% glucose. 3.1. […] 3.2.

For experiment [3] the test system is unchanged. As to the kind of experiment: Somatic transgenesis with TRE-tk-luciferase in dorsal muscle of pretreated xenopus tadpoles. The conditions noted are these: tadpoles pretreated with perchlorate and T3 10^-11 M; then T3 10^-8 M for 48 hours vs control; FIG. 6. It counts as in vivo.
Procedure: FIG. 6: Somatic transgenesis by injection, into the dorsal muscle of pretreated xenopus animals, of the construct TRE-tk-luciferase. The animals are pretreated for 48 hours with 10^−11 M of T3 thyroid hormone, and then rinsed for 24 hours. The animals are then transfected by injection into the dorsal muscle of 1 mg/animal of the construct TRE-tk-luciferase. The animals are then treated for 48 hours (10^−8 M) or in the absence (−T3) of thyroid hormone. Two days after treatment, the luciferase expression is measured. […] According to an alternative method, the transgenic animals according to the invention are pretreated with perchlorate for one month at 1 g/l, and are then sensitized with the test compound, such as the T3 hormone (10^−11 M), for 18 to 48 hours without food. The animals are then washed in a medium containing no T3 and are fed for 36 hours. The construct (for example TRE-tk-luciferase) is injected into the dorsal muscle of the xenopus embryo (1 mg/animal). Out of the 24 tadpoles that were pretreated and then subjected to somatic transgenesis, twelve tadpoles are treated for 48 hours with T3 thyroid hormone at 10^−8 M; the other twelve tadpoles that remain serve as a control.
In experiment [4] the test system is TRE-tk-EGFP construct (rat malic enzyme TRE). As to the kind of experiment: Somatic transgenesis in xenopus dorsal muscle with TRE-tk-EGFP. The following applies: T3 10 nM vs -T3; detected four days later; FIG. 7. It counts as in vivo. As for the experimental part:
FIG. 7: Somatic transgenesis by injection, into the dorsal muscle of xenopus, of the construct TRE-tk-EGFP. The animals are transfected by injection into the dorsal muscle of […] of the construct TRE-tk-EGFP. The animals are then treated for 48 hours in the presence (+T3 10 nM) or in the absence (−T3) of T3 thyroid hormone. […] The somatic transgenesis is carried out either: • by injection of 1 μl of naked DNA into the dorsal muscle of the embryo. The DNA concentration is 100 ng/μl to 5 μg/μl in 0.07 M NaCL; • by microinjection of 1 μl of DNA/PEI (polyethyleneimine) into the brain of the embryo. The DNA concentration is between 50 and 500 ng/μl in 5% glucose. 3.3. The TRE-tk-EGFP construct was injected into the dorsal muscle of a xenopus embryo ([…]). Half the animals are treated with T3 thyroid hormone at 10 nM.

Experiment [5] deals with DR4(X3)-GFP construct (consensus TRE). The following applies: thyroid hormone 10^-8 M in the water of the aquarium; FIG. 8. As for the experimental part:
The germinal transgenesis is carried out according to the protocol described by Kroll and Amaya (1996).

Entries after “also recorded” stand apart in the source; their conditions may differ.

On to `N[C@@H](Cc1cc(I)c(Oc2ccc(O)c(I)c2)c(I)c1)C(=O)O` [T3 thyroid hormone, Tri-iodothyronine], for which the “expression of the luciferase reporter protein” value in experiment [1] is “greater expression”. The “expression of the reporter protein (luciferase)” value in experiment [2] and in experiment [3] was “much greater expression” in each case. Further, the “expression of the reporter protein (EGFP)” value in experiment [4] was “much greater expression; also recorded: bioluminescence is visible in the cells of the treated animal”. Also, in experiment [5], the “emission of fluorescence (GFP)” value was “emission of fluorescence throughout the nervous system and in the limb buds”.
